Earlier results as cited in patent US20100008923A1, “Organic Compounds” (Novartis AG, priority 2006, published 2010).

Columns and labels:
[1] = for Potential side effects at upper limits: at upper limit of daily intake
HDAC = details: Kwon et al. (1998)

Upper limit of daily intake [1]	Compound	Potential side effects at upper limits [1]	HDAC inhibition (HDAC)
	cyanocobalamin [B12]	No known	
	Nc1nc2ncc(CNc3ccc(C(=O)N[C@@H](CCC(=O)O)C(=O)O)cc3)nc2c(=O)[nH]1 [B9, folic acid]	No known	
Above 3000 mg	O=C(O)c1cccnc1 [B3, nicotinic acid]	Liver problems	
	depudecin		inhibit HDAC at micromolar concentrations
Above 100 mg	Cc1ncc(CO)c(CO)c1O [B6, pyridoxine]		
